Reference: ChEMBL document CHEMBL4043164, “Design, synthesis and biological evaluation of novel antitumor spirotetrahydrothiopyran-oxindole derivatives as potent p53-MDM2 inhibitors” (Bioorg Med Chem, 2017)
pIC50: −log10 of the molar value.

Tests used:
[1] = tested on: A549; test: Cytotoxicity against human A549 cells assessed as reduction in cell viability incubated for 24 hrs by CCK8 assay; conditions: A549, 24 h
[2] = tested on: MCF7; test: Cytotoxicity against human MCF7 cells assessed as reduction in cell viability incubated for 24 hrs by CCK8 assay; conditions: MCF7, 24 h
[3] = tested on: HCT-116; test: Cytotoxicity against human HCT116 cells assessed as reduction in cell viability incubated for 24 hrs by CCK8 assay; conditions: HCT-116, 24 h

Compound	pIC50 [1]	pIC50 [2]	pIC50 [3]
COc1ccc(C2=N[C@H](c3ccc(Cl)cc3)[C@H](c3ccc(Cl)cc3)N2C(=O)N2CCNC(=O)C2)c(OC(C)C)c1	5.00	4.83	4.55
COc1ccc(N2C[C@H]3[C@@H](CS[C@]4(C(=O)Nc5cccc(Br)c54)[C@@H]3c3ccc(Br)cc3)CC2=O)cc1	5.37	5.52	5.08
O=C1C[C@@H]2CS[C@]3(C(=O)Nc4cccc(Br)c43)[C@H](c3ccc(Br)cc3)[C@H]2CN1c1ccccc1	5.38	5.40	5.07
COC(=O)C[C@@H]1CS[C@]2(C(=O)Nc3cccc(Br)c32)[C@H](c2ccc(Br)cc2)[C@H]1CNc1ccccc1F	5.38	5.44	4.98
O=C1Nc2cccc(Br)c2[C@@]12SC[C@@H](CCO)[C@H](CO)[C@H]2c1ccc(Br)cc1	4.78	4.87	4.72
COC(=O)C[C@@H]1CS[C@]2(C(=O)Nc3cccc(Br)c32)[C@H](c2ccc(Br)cc2)[C@H]1CNc1cccc(F)c1	5.46	5.55	5.07
CCOc1ccc(N2C[C@H]3[C@@H](CS[C@]4(C(=O)Nc5cccc(Br)c54)[C@@H]3c3ccc(Br)cc3)CC2=O)cc1	5.59	5.49	4.98
O=C1C[C@@H]2CS[C@]3(C(=O)Nc4cccc(Br)c43)[C@H](c3ccc(Br)cc3)[C@H]2CN1c1cccc(F)c1	5.46	5.42	5.02
CN1CCN(c2ccc(N3C[C@H]4[C@@H](CS[C@]5(C(=O)Nc6cccc(Br)c65)[C@@H]4c4ccc(Br)cc4)CC3=O)cc2)CC1	5.20	5.23	5.06
O=C1C[C@@H]2CS[C@]3(C(=O)Nc4cccc(Br)c43)[C@H](c3ccc(Br)cc3)[C@H]2CN1c1ccc(N2CCOCC2)cc1	5.59	5.62	5.37
Cc1ccc(N2C[C@H]3[C@@H](CS[C@]4(C(=O)Nc5cccc(Br)c54)[C@@H]3c3ccc(Br)cc3)CC2=O)cc1	5.34	5.52	5.29
O=C1C[C@@H]2CS[C@]3(C(=O)Nc4cccc(Br)c43)[C@H](c3ccc(Br)cc3)[C@H]2CN1c1ccc(Cl)cc1	5.32	5.38	5.10
O=C1C[C@@H]2CS[C@]3(C(=O)Nc4cccc(Br)c43)[C@H](c3ccc(Br)cc3)[C@H]2CN1c1ccc(F)cc1F	5.60	5.36	5.01
COC(=O)C[C@@H]1CS[C@]2(C(=O)Nc3cccc(Br)c32)[C@H](c2ccc(Br)cc2)[C@H]1C=O	4.95	5.07	4.76
O=C1C[C@@H]2CS[C@]3(C(=O)Nc4cccc(Br)c43)[C@H](c3ccc(Br)cc3)[C@H]2CN1c1ccc(F)cc1	5.36	5.40	4.98
O=C1C[C@@H]2CS[C@]3(C(=O)Nc4cccc(Br)c43)[C@H](c3ccc(Br)cc3)[C@H]2CN1c1ccccc1F	5.64	5.34	5.03
O=C1C[C@@H]2CS[C@]3(C(=O)Nc4cccc(Br)c43)[C@H](c3ccc(Br)cc3)[C@H]2CN1c1ccc(-c2ccccc2)cc1	5.39	5.16	5.25
CCN(CC)c1ccc(N2C[C@H]3[C@@H](CS[C@]4(C(=O)Nc5cccc(Br)c54)[C@@H]3c3ccc(Br)cc3)CC2=O)cc1	5.54	5.74	5.62
CCOc1cccc(N2C[C@H]3[C@@H](CS[C@]4(C(=O)Nc5cccc(Br)c54)[C@@H]3c3ccc(Br)cc3)CC2=O)c1	5.35	5.44	5.07
